Experimental data taken from the supplement of paper PMC10307832.

Key:
Experiment in all cases: relative viability (nuclei count vs DMSO), 5 days (fraction); higher = more cells survive
OSI-027 + Olaparib = compound: COc1cccc2cc(-c3nc([C@H]4CC[C@H](C(=O)O)CC4)n4ncnc(N)c34)[nH]c12 [OSI-027] + O=C(c1cc(Cc2n[nH]c(=O)c3ccccc23)ccc1F)N1CCN(C(=O)C2CC2)CC1 [Olaparib] (partner 8 µM)
Outline: (§1)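 Medians of duplicate plates are given as relative viability. That measure is the nuclei count in treated wells divided by the count in vehicle wells. Counts were taken on 4× images of lung cancer cell lines in 1536-well plates, 5 days after pin-tool dosing the day after seeding with one drug alone or a fixed anchor-drug dose plus five library-drug doses (not always all listed) in √10 steps.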

Alpelisib + Pictilisib = compound: Cc1nc(NC(=O)N2CCC[C@H]2C(N)=O)sc1-c1ccnc(C(C)(C)C(F)(F)F)c1 [Alpelisib] + CS(=O)(=O)N1CCN(Cc2cc3nc(-c4cccc5[nH]ncc45)nc(N4CCOCC4)c3s2)CC1 [Pictilisib] (partner 1 µM)
Outline: as §1

OSI-027 + Palbociclib = compound: COc1cccc2cc(-c3nc([C@H]4CC[C@H](C(=O)O)CC4)n4ncnc(N)c34)[nH]c12 [OSI-027] + CC(=O)c1c(C)c2cnc(Nc3ccc(N4CCNCC4)cn3)nc2n(C2CCCC2)c1=O [Palbociclib] (partner 0.5 µM)
Outline: as §1

Alpelisib + Navitoclax = compound: Cc1nc(NC(=O)N2CCC[C@H]2C(N)=O)sc1-c1ccnc(C(C)(C)C(F)(F)F)c1 [Alpelisib] + CC1(C)CCC(c2ccc(Cl)cc2)=C(CN2CCN(c3ccc(C(=O)NS(=O)(=O)c4ccc(N[C@H](CCN5CCOCC5)CSc5ccccc5)c(S(=O)(=O)C(F)(F)F)c4)cc3)CC2)C1 [Navitoclax] (partner 0.5 µM)
Outline: as §1

Row | Cell Line | relative viability (OSI-027 + Olaparib; first compound 0.01 µM) | relative viability (OSI-027 + Olaparib; first compound 0.03162 µM) | relative viability (OSI-027 + Olaparib; first compound 0.1 µM) | relative viability (OSI-027 + Olaparib; first compound 0.3162 µM) | relative viability (OSI-027 + Olaparib; first compound 1 µM) | relative viability (Alpelisib + Pictilisib; first compound 0.04 µM) | relative viability (Alpelisib + Pictilisib; first compound 0.4 µM) | relative viability (Alpelisib + Pictilisib; first compound 1.265 µM) | relative viability (Alpelisib + Pictilisib; first compound 4 µM) | relative viability (OSI-027 + Palbociclib; first compound 0.01 µM) | relative viability (OSI-027 + Palbociclib; first compound 0.03162 µM) | relative viability (OSI-027 + Palbociclib; first compound 0.1 µM) | relative viability (OSI-027 + Palbociclib; first compound 0.3162 µM) | relative viability (OSI-027 + Palbociclib; first compound 1 µM) | relative viability (Alpelisib + Navitoclax; first compound 0.04 µM) | relative viability (Alpelisib + Navitoclax; first compound 0.4 µM) | relative viability (Alpelisib + Navitoclax; first compound 1.265 µM) | relative viability (Alpelisib + Navitoclax; first compound 4 µM) | relative viability (Alpelisib + Pictilisib; first compound 0.1265 µM) | relative viability (Alpelisib + Navitoclax; first compound 0.1265 µM)
1 | ChaGo-K-1 | 0.429 | 0.423 | 0.451 | 0.415 | 0.317 | 0.714 | 0.883 | 0.625 | 0.492 | 0.946 | 0.942 | 0.904 | 0.87 | 0.774 | 1.01 | 1.14 | 0.731 | 0.583 | – | –
2 | SK-MES-1 | 0.62 | 0.605 | 0.532 | 0.417 | 0.285 | 0.361 | 0.467 | 0.333 | 0.316 | 0.294 | 0.322 | 0.286 | 0.275 | 0.274 | 1.16 | 1.29 | 1.02 | 0.793 | 0.39 | 1.25
3 | NCI-H2347 | 0.599 | 0.536 | 0.598 | 0.492 | 0.344 | 0.757 | 0.571 | 0.648 | 0.554 | 0.41 | 0.386 | 0.392 | 0.358 | 0.392 | 0.919 | 0.868 | 0.665 | 0.605 | 0.776 | 0.745
4 | PC-14 | 0.228 | 0.267 | 0.292 | 0.306 | 0.23 | 0.703 | 0.898 | 0.6 | 0.611 | 0.512 | 0.509 | 0.545 | 0.576 | 0.408 | 0.984 | 1.16 | 0.913 | 0.945 | 0.858 | 1.08
5 | LXF-289 | 1.07 | 1.05 | 1.13 | 0.971 | 0.625 | 0.762 | 0.855 | 0.707 | 0.733 | 0.605 | 0.677 | 0.66 | 0.599 | 0.345 | 0.91 | 0.968 | 0.917 | 0.939 | 0.805 | 0.972
6 | NCI-H1355 | 0.702 | 0.667 | 0.663 | 0.521 | 0.342 | 0.444 | 0.436 | 0.521 | 0.425 | 0.4 | 0.392 | 0.317 | 0.264 | 0.257 | 0.89 | 1.07 | 0.927 | 0.84 | 0.568 | 1.02
7 | NCI-H727 | 0.675 | 0.688 | 0.671 | 0.752 | 0.556 | 0.302 | 0.404 | 0.325 | 0.373 | 0.655 | 0.65 | 0.752 | 0.622 | 0.625 | 0.33 | 0.411 | 0.244 | 0.137 | 0.462 | 0.303
8 | NCI-H2023 | 0.455 | 0.446 | 0.455 | 0.303 | 0.253 | 0.203 | 0.253 | 0.207 | 0.19 | 0.36 | 0.326 | 0.249 | 0.22 | 0.161 | 0.882 | 0.887 | 0.782 | 0.66 | 0.26 | 1.01
9 | NCI-H2009 | 0.859 | 0.674 | 0.724 | 0.584 | 0.555 | 0.805 | 1.02 | 0.767 | 0.52 | 0.211 | 0.237 | 0.171 | 0.173 | 0.232 | 1.24 | 1.16 | 1.08 | 1.13 | 0.773 | 1.14
10 | HCC-78 | 0.769 | 0.699 | 0.723 | 0.558 | 0.397 | 0.21 | 0.218 | 0.222 | 0.228 | 0.484 | 0.452 | 0.483 | 0.45 | 0.411 | 0.745 | 0.738 | 0.373 | 0.518 | 0.187 | 0.609
11 | NCI-H322M | 0.818 | 0.718 | 0.813 | 0.666 | 0.505 | 0.491 | 0.544 | 0.473 | 0.478 | 0.489 | 0.436 | 0.478 | 0.438 | 0.483 | 0.908 | 1.29 | 0.941 | 0.936 | 0.553 | 1.07
